Experimental data: PMC9695592, “Phenotypic Evaluation of Nucleoside Analogues against Trypanosoma cruzi Infection: In Vitro and In Vivo Approaches” (Molecules, 2022)
Like-named read-outs stand apart in the source and are kept apart here.

Columns and labels:
[1] = test system: promastigotes of Lmex^ΔNT1+TcrNT2; test: Resazurin-based assay on Cas9^ΔNT1+TcrNT2 promastigotes; assay type: cell-based, Leishmania mexicana; conditions: for EC50: Leishmania mexicana, read-out: Lmex^ΔNT1+TcrNT2 EC50 (μM); for Lmex^ΔNT1+TcrNT2 Sensitization (fold): ratio of the EC50 values of the Cas9^ΔNT1 and Cas9^ΔNT1+TcrNT2 strains
Protocol: (§1) Bloodstream trypomastigotes of the Y strain (DTU II) were obtained by cardiac puncture of infected Swiss Webster mice on the parasitemia peak to perform drug sensitivity assays. Trypomastigote forms of the Tulahuen-β gal strain were collected from the supernatant of previously infected L929 cell cultures (host/parasite cell ratio 10:1). The intracellular forms T. cruzi were studied by the infection of L929 and H9C2 (2D and 3D) cell cultures infected for 48 and 24 h with trypomastigotes of Tulahuen-β gal and Y strains, respectively. The Leishmania mexicana-Cas9 T7 strain (LmexCas9) was derived from L. mexicana WT promastigotes by expression of the Streptococcus pyogenes Cas9 nuclease gene ‘Cas9′ and maintained on 32 μg/mL hygromycin [51]. This strain and the derived strains Cas9^ΔNT1 and Cas9^ΔNT1+TcrNT2 were cultured in HOMEM medium supplemented with 10% of FBS and 1% Penicillin-Streptomycin antibiotic in unvented flasks at 25 °C [52]. The Cas9^ΔNT1 strain is identical to Cas9 except that the LmexNT1.1/NT1.2 locus encoding the L. mexicana adenosine/ pyrimidine transporters was excised using Cas9 [17, 40]. Cas9^ΔNT1+TcrNT2 is the further modification of that strain by the expression of the T. cruzi nucleoside transporter 2 (TcrNT2) gene in it, using the vector pNUS-HcN [53]. Appropriate antibiotics were added for the selection and maintenance of transfectants.
(§2) The EC50 values for nucleoside analogues against Leishmania mexicana promastigotes of the Cas9, Cas9^ΔNT1 and Cas9^ΔNT1+TcrNT2 strains used a resazurin-based assay, as described. Briefly, the assays were performed in standard HOMEM medium and culture conditions, in white opaque 96-well plates. For each test compound (stored as a 40 mM stock solution in 100% DMSO at −20 °C), a doubling dilution was performed over 2 rows of the plate, keeping the last well free as no-drug control with HOMEM only (23 doubling dilutions; highest concentration 100 µM). To each well, 100 µL of HOMEM containing 2 × 10^5 cells of the appropriate L. mexicana line was added, and the plates incubated for 72 h at 25 °C, followed by the addition of 20 µL of resazurin solution and further incubation for 48 h. Fluorescence was read on a FLUOstar OPTIMA plate reader (BMG Labtech, Germany), at an excitation wavelength of 544 nm and an emission wavelength of 620 nm. The EC50 values were determined by the GraphPad Prism 8.0 software using an equation for a sigmoid curve with variable slope. Pentamidine was used as positive control, and every experiment was independently performed at least 3 times independently.

[2] = test system: promastigotes of LmexCas9; test: Resazurin-based assay on LmexCas9 promastigotes; assay type: cell-based, Leishmania mexicana
Protocol: as §1, §2

[3] = target: LmexNT1 (Leishmania mexicana, UniProt E9AQB5); test: Inhibition of [3H]-adenosine uptake by LmexNT1.1 expressed in L. mexicana promastigotes; assay type: biochemical
Protocol: Figure 2 Uptake of 50 nM [^3H]-adenosine by LmexNT1.1 expressed in L. mexicana promastigotes from which both original alleles of LmexNT1.1/NT1.2 and of LmexNT2 had been deleted by CRISPR/cas9. Incubation time was 10 s, well within the linear phase of uptake. Symbols represent averages of triplicate determinations, and error bars indicate ± SEM when not shown error bars fall within the symbol. The graph shown is a single experiment in triplicate, representative of three identical, independent repeats.
Uptake of 50 nM 2,8-^3H-adenosine (American Radiolabelled Chemicals (ART0287A), 40 Ci/ mmol) was exactly measured, exactly as described. Briefly, promastigotes were washed into the standard assay buffer (AB) by centrifugation, and aliquots of 100 µL containing 10^7 parasites were incubated with the radiolabel on top of an oil layer in a microfuge tube, for exactly 5 s. The incubation was stopped by the addition of 800 µL of ice-cold 1 mM adenosine in AB and immediate centrifugation through the oil layer to separate cells from the remaining extracellular radiolabel. Cell pellets were collected in scintillation vials after flash freezing in liquid nitrogen, by cutting of the tip of the microfuge tube. The promastigotes were then solubilised in 1% SDS, and scintillation fluid was added (Scintlogic U, Lablogic), and radioactivity was quantified in a Hidex 300SL scintillation counter (Lablogic). Data was plotted using non-linear regression with an equation for a sigmoid curve with a variable slope in Prism v8 (GraphPad).

[4] = test system: promastigotes of Cas9^ΔNT1; test: Resazurin-based assay on Cas9^ΔNT1 promastigotes; assay type: cell-based, Leishmania mexicana; conditions: Leishmania mexicana, read-out: Cas9^ΔNT1 EC50 (μM), promastigotes, resazurin-based assay, highest concentration 100 µM
Protocol: as §1, §2

[5] = test system: H9C2 3D cultures; test: Cardiotoxicity on H9C2 organoids (3D), PrestoBlue; assay type: cell-based, rat; conditions: Rattus norvegicus, H9c2, 168 h, 3D H9C2, seven days of compound incubation; 95% confidence interval in brackets; read-out: Cardiotoxic profile IC50 (µM) 3D
Text: (§3) L929 cell lines were used to evaluate the effect of the nucleoside derivatives on the cellular viability of mammalian host cells and to assess their activity against intracellular forms of T. cruzi (Tulahuen strain expressing E. coli β-galactosidase gene, DTU VI) as reported. 2D and 3D culture systems of rat cardiomyoblast cell lines (H9C2(2-1)) were used to evaluate cardiotoxicity and to test the derivatives’ activity on intracellular forms (Y strain, DTU II). In all assays, the cell cultures were maintained at 37 °C under an atmosphere of 5% CO2.
(§4) L929 cells seeded in sterile 96-well microtiter plates were exposed or not to increasing concentrations (up to 200 µM) of the compounds. After seven days of incubation, the cell growth of treated cultures was compared to untreated control cells (100% cell growth). Cellular viability was assessed through AlamarBlue® (resazurin sodium salt) colorimetric assay, and the results were expressed as % reduction in cell growth/viability compared to untreated control, and an IC50 value determined. For the assays using H9C2 cultures, 25 × 10^3 cells/well were seeded in a 96-well microtiter plates (flat and U bottoms, precoated with agarose 1% for preparing 2- and 3D matrices, respectively) and maintained at 37 °C [48, 54].
The cardiac cultures were exposed or not to increasing concentrations of the nucleoside derivatives (up to 300 µM), and after seven days of incubation, their physiology and morphology was evaluated by light microscopy. Cell viability was measured using the PrestoBlue® (PB) colorimetric assay, the results evaluated as % reduction in cell growth/viability compared to untreated control, and an IC50 value determined. The data results from at least two independent experiments done in at least duplicates.

[6] = test system: H9C2 2D cultures; test: Cardiotoxicity on H9C2 monolayers (2D), PrestoBlue; assay type: cell-based; conditions: Rattus norvegicus, 168 h; 2D H9C2, seven days of compound incubation; 95% confidence interval in brackets; read-out: Cardiotoxic profile IC50 (µM) 2D
Text: as §3
as §4, with “After seven days of incubation, the cell growth of treated cultures was compared to untreated control cells (100% cell growth).” left out
[…] Cell viability was measured using the PrestoBlue® (PB) colorimetric assay, the results evaluated as % reduction in cell growth/viability compared to untreated control, and an IC50 value determined. The data results from at least two independent experiments done in at least duplicates.

[7] = Leishmania mexicana, read-out: Cas9 EC50 (μM), promastigotes, resazurin-based assay, highest concentration 100 µM

Sequence of LmexNT1 (E9AQB5 entry or part of it): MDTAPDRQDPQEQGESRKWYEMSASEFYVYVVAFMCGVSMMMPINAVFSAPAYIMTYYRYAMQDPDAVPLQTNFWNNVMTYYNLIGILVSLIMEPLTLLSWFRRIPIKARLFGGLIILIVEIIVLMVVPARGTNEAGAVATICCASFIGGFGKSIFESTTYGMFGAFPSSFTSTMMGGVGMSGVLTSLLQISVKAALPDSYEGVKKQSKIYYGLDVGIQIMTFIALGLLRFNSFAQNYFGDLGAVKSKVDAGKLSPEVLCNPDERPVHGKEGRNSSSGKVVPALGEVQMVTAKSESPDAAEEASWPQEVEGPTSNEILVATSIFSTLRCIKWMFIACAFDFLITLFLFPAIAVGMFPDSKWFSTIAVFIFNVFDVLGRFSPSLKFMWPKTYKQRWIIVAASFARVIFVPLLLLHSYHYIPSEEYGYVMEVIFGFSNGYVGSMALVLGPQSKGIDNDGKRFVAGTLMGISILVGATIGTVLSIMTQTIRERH

`Nc1ncnc2c1c(Cl)cn2[C@@H]1O[C@H](CO)[C@@H](O)[C@H]1O` [FH3169] was tested, and the EC50 [1] was 0.32 ± 0.05 µM, the “Lmex^ΔNT1+TcrNT2 Sensitization (fold)” value [1] was 6.3 fold and the EC50 [2, 7] was 0.24 ± 0.06 µM. The Ki [3] was 2.8 ± 0.2 µM and the EC50 [4] was 2 ± 0.19 µM.
For `Nc1ncnc2c1c(-c1ccc(Cl)c(Cl)c1)cn2[C@@H]1O[C@H](CO)[C@@H](O)[C@H]1O` [FH3147, 7-(3,4-dichlorophenyl)tubercidin], the EC50 [1] was 13.7 ± 1.25 µM, the EC50 [2, 7] was 8.4 ± 1.6 µM and the EC50 ([2]; read-out: Cas9 EC50, promastigotes, resazurin-based assay, highest concentration 100 µM) was 8.41 ± 1.61 µM. The EC50 [4] was over 100 µM.
With `Nc1ncnc2c1c(-c1ccc(Cl)cc1)cn2[C@@H]1O[C@H](CO)[C@@H](O)[C@H]1O` [TH1012] the EC50 [1] was 96.6 ± 0.3 µM, the “Lmex^ΔNT1+TcrNT2 Sensitization (fold)” value [1] was 2.9 fold and the EC50 [2, 7] was 52.5 ± 0.3 µM. For the same compound, the EC50 [4] was 280 ± 18 µM.
For `Nc1ncnc2c1ccn2[C@@H]1O[C@H](CO)[C@@H](O)[C@H]1O` [Tubercidin, reference compound], the EC50 [2, 7] was 1.02 ± 0.16 µM, the Ki [3] was 5.8 ± 0.6 µM and the EC50 [4] was 25.7 ± 0.94 µM.
With `N=C(N)c1ccc(OCCCCCOc2ccc(C(=N)N)cc2)cc1` [Pentamidine, reference compound] the EC50 [1] was 1.12 ± 0.17 µM, the “Lmex^ΔNT1+TcrNT2 Sensitization (fold)” value [1] was 1.11 fold and the IC50 [5] was over 200 µM. The EC50 [2, 7] was 0.87 ± 0.1 µM, the IC50 [6] was 46 µM and the EC50 [4] was 1.25 ± 0.22 µM.
`Nc1ncnc2c1c(-c1ccccc1)cn2[C@@H]1O[C@H](CO)[C@@H](O)[C@H]1O` [TH1004] was tested, and the EC50 [1] was 101 ± 0.5 µM, the “Lmex^ΔNT1+TcrNT2 Sensitization (fold)” value [1] was 1.37 fold and the EC50 [2, 7] was 37 ± 0.23 µM. For the same compound, the Ki [3] was 3.8 ± 0.3 µM and the EC50 [4] was 138 ± 10 µM.
